Assay results taken from US10105357B2, “Indication of antibiotic drugs for preparation of cancer inhibition pharmaceutical composition” (LAUNX BIOMEDICAL CO., LTD., priority 2014, dated 2018).
Where a name gives a salt, the structure may show the parent alone. Read-outs that look alike come from different tables or passages of the source.

What was measured:
Format in all cases: cell-based, human
[1] = test system: MKN-45 (Gastric Adenocarcinoma); assay: Cell viability analysis, gastric cancer MKN-45; settings: Homo sapiens, MKN-45, 72 h
[2] = test system: cancer cell lines; assay: Cell viability analysis (WST-1) on cancer cell lines; settings: drug 10 μM, 72 hours, WST-1; Table 3
[3] = test system: HL-60 (Acute Promyelocytic Leukemia); assay: Cell viability analysis, leukemia HL-60; settings: Homo sapiens, HL-60, 72 h
[4] = test system: A375 (Amelanotic Melanoma); assay: Cell viability analysis, skin cancer A375; settings: Homo sapiens, A-375, 72 h
[5] = test system: MCF7 (Mammary Gland, Adenocarcinoma); assay: Cell viability analysis, breast cancer MCF7; settings: Homo sapiens, MCF7, 72 h
[6] = test system: HI650 (Lung Adenocarcinoma); assay: Cell viability analysis, lung cancer HI650; settings: Homo sapiens, NCI-H1650, 72 h
[7] = test system: PC3 (p53−) (Prostate Adenocarcinoma); assay: Cell viability analysis, prostate cancer PC3; settings: Homo sapiens, 72 h
[8] = test system: TSGH-8301 (Urinary Bladder Carcinoma); assay: Cell viability analysis, bladder cancer TSGH-8301; settings: Homo sapiens, 72 h
[9] = test system: AGS (Gastric Adenocarcinoma); assay: Cell viability analysis, gastric cancer AGS; settings: Homo sapiens, 72 h
[10] = test system: HeLa (Cervix Adenocarcinoma); assay: Cell viability analysis, cervical cancer HeLa; settings: Homo sapiens, HeLa, 72 h
[11] = test system: HepG2 (Hepatocellular Carcinoma); assay: Cell viability analysis, hepatic cancer HepG2; settings: Homo sapiens, HepG2, 72 h
[12] = test system: LoVo (Colorectal Adenocarcinoma); assay: Cell viability analysis, colon cancer LoVo; settings: Homo sapiens, LoVo, 72 h, read-out: cell viability (survival rate), LoVo, drug 10 μM, 72 hours, WST-1, OD450 nm
[13] = test system: A549 (Lung Adenocarcinoma); assay: Cell viability analysis, lung cancer A549; settings: Homo sapiens, A549, 72 h
[14] = read-out: cell viability (survival rate), MKN-45, drug 10 μM, 72 hours, WST-1, OD450 nm
[15] = read-out: cell viability (survival rate), HL-60, drug 10 μM, 72 hours, WST-1, OD450 nm
[16] = read-out: cell viability (survival rate), A375, drug 10 μM, 72 hours, WST-1, OD450 nm
[17] = read-out: cell viability (survival rate), MCF7, drug 10 μM, 72 hours, WST-1, OD450 nm
[18] = read-out: cell viability (survival rate), H1650, drug 10 μM, 72 hours, WST-1, OD450 nm
[19] = read-out: cell viability (survival rate), PC3, drug 10 μM, 72 hours, WST-1, OD450 nm
[20] = read-out: cell viability (survival rate), TSGH, drug 10 μM, 72 hours, WST-1, OD450 nm
[21] = read-out: cell viability (survival rate), AGS, drug 10 μM, 72 hours, WST-1, OD450 nm
[22] = read-out: cell viability (survival rate), HeLa, drug 10 μM, 72 hours, WST-1, OD450 nm
[23] = read-out: cell viability (survival rate), HepG2, drug 10 μM, 72 hours, WST-1, OD450 nm
[24] = read-out: cell viability (survival rate), A549, drug 10 μM, 72 hours, WST-1, OD450 nm
[25] = drug 10 μM, 72 hours, WST-1, OD450 nm, read-out: cell viability (survival rate), MKN-45
[26] = drug 10 μM, 72 hours, WST-1, OD450 nm, read-out: cell viability (survival rate), HL-60
[27] = drug 10 μM, 72 hours, WST-1, OD450 nm, read-out: cell viability (survival rate), A375
[28] = drug 10 μM, 72 hours, WST-1, OD450 nm, read-out: cell viability (survival rate), MCF7
[29] = drug 10 μM, 72 hours, WST-1, OD450 nm, read-out: cell viability (survival rate), H1650
[30] = drug 10 μM, 72 hours, WST-1, OD450 nm, read-out: cell viability (survival rate), PC3
[31] = drug 10 μM, 72 hours, WST-1, OD450 nm, read-out: cell viability (survival rate), TSGH
[32] = drug 10 μM, 72 hours, WST-1, OD450 nm, read-out: cell viability (survival rate), AGS
[33] = drug 10 μM, 72 hours, WST-1, OD450 nm, read-out: cell viability (survival rate), HeLa
[34] = drug 10 μM, 72 hours, WST-1, OD450 nm, read-out: cell viability (survival rate), HepG2
[35] = drug 10 μM, 72 hours, WST-1, OD450 nm, read-out: cell viability (survival rate), A549

Compound | viability at 10 µM [1, 14] [%] | inhibition effect on different cancer cell lines [2] | viability at 10 µM [3, 15] [%] | viability at 10 µM [4, 16] [%] | viability at 10 µM [5, 17] [%] | viability at 10 µM [6, 18] [%] | viability at 10 µM [7, 19] [%] | viability at 10 µM [8, 20] [%] | viability at 10 µM [9, 21] [%] | viability at 10 µM [10, 22] [%] | viability at 10 µM [11, 23] [%] | viability at 10 µM [12] [%] | viability at 10 µM [13, 24] [%] | further results
C[C@@H](O)[C@H]1C(=O)N2C(C(=O)[O-])=C(SC3Cn4cnc[n+]4C3)[C@H](C)[C@H]12 (stereo partly drawn) [Biapenem] | 81.5 | significant inhibition effect | 95.5 | 60.4 | 136 | 42.2 | 80.3 | 117 | 75.1 | 54 | 66.4 | 88.7 | 90.1 | 
CCCCCCCCCC(=O)N[C@@H](Cc1c[nH]c2ccccc12)C(=O)N[C@H](CC(N)=O)C(=O)N[C@@H](CC(=O)O)C(=O)N[C@@H]1C(=O)NCC(=O)N[C@@H](CCCN)C(=O)N[C@@H](CC(=O)O)C(=O)N[C@H](C)C(=O)N[C@@H](CC(=O)O)C(=O)NCC(=O)N[C@H](CO)C(=O)N[C@@H]([C@H](C)CC(=O)O)C(=O)N[C@@H](CC(=O)c2ccccc2N)C(=O)O[C@@H]1C [Daptomycin] | 92.1 | significant inhibition effect | 108 | 81.2 | 85.3 | 76.3 | 79.7 | 56.8 | 63 | 114 | 95.9 | 90.9 | 74 | 
CCCCCCCCCCCC[N+](C)(C)CCOc1ccccc1 [Domiphen Bromide] |  | significant inhibition effect |  |  |  |  |  |  |  |  |  | 48.7 |  | viability at 10 µM [1, 25]: 44.4%; viability at 10 µM [3, 26]: 30%; viability at 10 µM [4, 27]: 36.3%; viability at 10 µM [5, 28]: 31.3%; viability at 10 µM [6, 29]: 46.5%; viability at 10 µM [7, 30]: 38.9%; viability at 10 µM [8, 31]: 37.3%; viability at 10 µM [9, 32]: 32.5%; viability at 10 µM [10, 33]: 38%; viability at 10 µM [11, 34]: 62.1%; viability at 10 µM [13, 35]: 28.7%
O=C(C[S+]([O-])Cc1ccco1)NC/C=C\COc1cc(CN2CCCCC2)ccn1 (stereo not drawn) [Lafutidine] |  | significant inhibition effect |  |  |  |  |  |  |  |  |  | 48 |  | viability at 10 µM [1, 25]: 89.6%; viability at 10 µM [3, 26]: 95.3%; viability at 10 µM [4, 27]: 116%; viability at 10 µM [5, 28]: 33.6%; viability at 10 µM [6, 29]: 80.1%; viability at 10 µM [7, 30]: 40.7%; viability at 10 µM [8, 31]: 51.9%; viability at 10 µM [9, 32]: 45.5%; viability at 10 µM [10, 33]: 46.9%; viability at 10 µM [11, 34]: 102%; viability at 10 µM [13, 35]: 21.3%
CC(=O)Oc1cc(C(F)(F)F)ccc1C(=O)O [Triflusal] | 134 | significant inhibition effect | 93.3 | 95.9 | 97.8 | 81.3 | 87.5 | 86.5 | 93.3 | 105 | 103 | 103 | 112 | 
COc1cnc(NS(=O)(=O)c2ccc(N)cc2)nc1 [Sulfameter (Bayrena), Sulfameter] |  | significant inhibition effect |  |  |  |  |  |  |  |  |  | 89.9 |  | viability at 10 µM [1, 25]: 58.6%; viability at 10 µM [3, 26]: 110%; viability at 10 µM [4, 27]: 89.2%; viability at 10 µM [5, 28]: 51.7%; viability at 10 µM [6, 29]: 84.8%; viability at 10 µM [7, 30]: 90.2%; viability at 10 µM [8, 31]: 78.6%; viability at 10 µM [9, 32]: 67.4%; viability at 10 µM [10, 33]: 78.4%; viability at 10 µM [11, 34]: 95.5%; viability at 10 µM [13, 35]: 59%
O=C1OC(CN2CCOCC2)CN1/N=C/c1ccc([N+](=O)[O-])o1 (stereo not drawn) [Furaltadone HCl] | 72.6 | significant inhibition effect | 64.6 | 66 | 103 | 83.1 | 99.2 | 81.3 | 68.2 | 64 | 83.2 | 62.2 | 67.9 | 
CC(NCCc1ccc(O)cc1)C(O)c1ccc(O)cc1 (stereo not drawn) [Ritodrine hydrochloride (Yutopar), Ritodrine hydrochloride] | 97.2 | significant inhibition effect | 86 | 87.4 | 86.5 | 96.4 | 113 | 64.4 | 80.1 | 133 | 92.8 | 104 | 95.5 | 
CN(C)c1ccc(C(=C2C=CC(=[N+](C)C)C=C2)c2ccc(N(C)C)cc2)cc1 [Crystal violet] | 44.8 | significant inhibition effect | 37.3 | 32 | 46 | 68.5 | 31.8 | 44.1 | 52.7 | 38.9 | 70.3 | 62.3 | 37.5 | 
CC1=C(C(=O)O)N2C(=O)[C@@H](NC(=O)[C@H](N)c3ccccc3)[C@H]2SC1 [Cephalexin (Cefalexin), Cephalexin] | 94.9 | significant inhibition effect | 95.2 | 92.7 | 96.1 | 71.2 | 57.5 | 69.2 | 59.6 | 76.2 | 109 | 85.9 | 80.6 | 
Clc1ccccc1C(c1ccccc1)(c1ccccc1)n1ccnc1 [Clotrimazole (Canesten), Clotrimazole] | 53.9 | significant inhibition effect | 106 | 81.4 | 56.8 | 75.9 | 69.3 | 50.8 | 85.7 | 90 | 102 | 94.1 | 85.5 | 
Nc1ccc(S(=O)(=O)Nc2ncccn2)cc1 [Sulfadiazine] | 44.4 | significant inhibition effect | 106 | 79.5 | 37.2 | 69.2 | 70.1 | 80.4 | 91.8 | 43.7 | 114 | 93.6 | 38.1 | 
